{"source": "paper PMC6979384", "about": "“Characterization of the plant homeodomain (PHD) reader family for their histone tail interactions” (Epigenetics & Chromatin, 2020)", "assay_in_all_cases": "Histone peptide microarray", "assay_type_in_all_cases": "binding, human", "settings_in_all_cases": "total n = 4", "key": {"DIDO1": {"test_system": "DIDO1", "procedure,_shortened": "(§1)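 Recombinant GST-PHD protein at 0.5 μM; 293-member modified histone peptide array; signals averaged from four repeats ± SD.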"}, "SP140L": {"test_system": "SP140L", "procedure,_shortened": "as §1"}, "ING5": {"test_system": "ING5", "procedure,_shortened": "as §1"}, "KDM5A (1)": {"test_system": "KDM5A (1)", "procedure,_shortened": "as §1"}, "CHD5 (PPCC)": {"test_system": "CHD5 (PPCC)", "procedure,_shortened": "as §1"}, "PHF23": {"test_system": "PHF23", "procedure,_shortened": "as §1"}, "MORC3 (CW)": {"test_system": "MORC3 (CW)", "procedure,_shortened": "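GST-tagged PHD finger readers were expressed, purified and applied at 0.5 μM to a microarray of 293 synthetic histone peptides carrying single or combinatorial PTMs, using an optimized protocol. Binding signals are averages with standard deviation from 4 replicates.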"}, "KDM5B (1)": {"test_system": "KDM5B (1)", "procedure,_shortened": "as §1"}, "PHF21A": {"test_system": "PHF21A", "procedure,_shortened": "as §1"}, "BAZ2B": {"test_system": "BAZ2B", "procedure,_shortened": "as §1"}, "TRIM66 (PB)": {"test_system": "TRIM66 (PB)", "procedure,_shortened": "as §1"}, "PHF13": {"test_system": "PHF13", "procedure,_shortened": "as §1"}, "KDM4C (TTP)": {"test_system": "KDM4C (TTP)", "procedure,_shortened": "as §1"}, "ING1": {"test_system": "ING1", "procedure,_shortened": "as §1"}, "CHD5 (PCC)": {"test_system": "CHD5 (PCC)", "procedure,_shortened": "as §1"}, "ING4": {"test_system": "ING4", "procedure,_shortened": "as §1"}, "KDM7A": {"test_system": "KDM7A", "procedure,_shortened": "as §1"}, "MLL5": {"test_system": "MLL5", "procedure,_shortened": "as §1"}, "AIRE (PP)": {"test_system": "AIRE (PP)", "procedure,_shortened": "as §1"}, "KDM5A (3)": {"test_system": "KDM5A (3)", "procedure,_shortened": "as §1"}, "BPTF (PB)": {"test_system": "BPTF (PB)", "procedure,_shortened": "as §1"}, "RAG2": {"test_system": "RAG2", "procedure,_shortened": "as §1"}, "CHD4 (PPCC)": {"test_system": "CHD4 (PPCC)", "procedure,_shortened": "as §1"}, "KDM5B (3)": {"test_system": "KDM5B (3)", "procedure,_shortened": "as §1"}, "ING2": {"test_system": "ING2", "procedure,_shortened": "as §1"}, "PHF2": {"test_system": "PHF2", "procedure,_shortened": "as §1"}, "ING3": {"test_system": "ING3", "procedure,_shortened": "as §1"}, "PHF8": {"test_system": "PHF8", "procedure,_shortened": "as §1"}, "PHRF1 (RP)": {"test_system": "PHRF1 (RP)", "procedure,_shortened": "as §1"}, "TAF3": {"test_system": "TAF3", "procedure,_shortened": "as §1"}, "DPF2 (PPC2W2)": {"test_system": "DPF2 (PPC2W2)", "procedure,_shortened": "as §1"}, "[1]": {"settings": "sheet \"Array Heatmap\", GST-tagged reader, histone peptide array"}}, "data": [{"substance": "H3T3p + K4me3: H3 1-20", "values": [{"measurement": "Array Heatmap signal (histone peptide microarray)", "setting": "DIDO1; GST-tagged DIDO1, sheet Array Heatmap, each array performed twice", "result": 0.6916}, {"measurement": "Array Heatmap signal (histone peptide microarray)", "setting": "SP140L; GST-tagged SP140L, sheet Array Heatmap, each array performed twice", "result": 0.3246}, {"measurement": "Array Heatmap signal (histone peptide microarray)", "setting": "ING5; GST-tagged ING5, sheet Array Heatmap, each array performed twice", "result": 0.3533}, {"measurement": "Array Heatmap signal (histone peptide microarray)", "setting": "KDM5A (1); GST-tagged KDM5A (1), sheet Array Heatmap, each array performed twice", "result": 0.462}, {"measurement": "Array Heatmap signal (histone peptide microarray)", "setting": "CHD5 (PPCC); GST-tagged CHD5 (PPCC = Dual PHD + Dual Chromodomain), sheet Array Heatmap, each array performed twice", "result": 0.5481}, {"measurement": "Array Heatmap signal (histone peptide microarray)", "setting": "PHF23; GST-tagged PHF23, sheet Array Heatmap, each array performed twice", "result": 0.5295}, {"measurement": "Array Heatmap signal (histone peptide microarray)", "setting": "MORC3 (CW); GST-tagged MORC3 (CW = CW-type Zn-finger), sheet Array Heatmap, each array performed twice", "result": 0.5559}, {"measurement": "Array Heatmap signal (histone peptide microarray)", "setting": "KDM5B (1); GST-tagged KDM5B (1), sheet Array Heatmap, each array performed twice", "result": 0.6609}, {"measurement": "Array Heatmap signal (histone peptide microarray)", "setting": "PHF21A; GST-tagged PHF21A, sheet Array Heatmap, each array performed twice", "result": 0.4603}, {"measurement": "Array Heatmap signal (histone peptide microarray)", "setting": "BAZ2B; GST-tagged BAZ2B, sheet Array Heatmap, each array performed twice", "result": 0.4608}, {"measurement": "Array Heatmap signal (histone peptide microarray)", "setting": "TRIM66 (PB); GST-tagged TRIM66 (PB = PHD + Bromodomain), sheet Array Heatmap, each array performed twice", "result": 0.5989}, {"measurement": "Array Heatmap signal (histone peptide microarray)", "setting": "PHF13; GST-tagged PHF13, sheet Array Heatmap, each array performed twice", "result": 0.62}, {"measurement": "Array Heatmap signal (histone peptide microarray)", "setting": "KDM4C (TTP); GST-tagged KDM4C (TTP = Tandem Tudor domain + PHD), sheet Array Heatmap, each array performed twice", "result": 0.4706}, {"measurement": "Array Heatmap signal (histone peptide microarray)", "setting": "ING1; GST-tagged ING1, sheet Array Heatmap, each array performed twice", "result": 0.5588}, {"measurement": "Array Heatmap signal (histone peptide microarray)", "setting": "CHD5 (PCC); GST-tagged CHD5 (PCC = PHD + Dual Chromodomain), sheet Array Heatmap, each array performed twice", "result": 0.7821}, {"measurement": "Array Heatmap signal (histone peptide microarray)", "setting": "ING4; GST-tagged ING4, sheet Array Heatmap, each array performed twice", "result": 0.4716}, {"measurement": "Array Heatmap signal (histone peptide microarray)", "setting": "KDM7A; GST-tagged KDM7A, sheet Array Heatmap, each array performed twice", "result": 0.3295}, {"measurement": "Array Heatmap signal (histone peptide microarray)", "setting": "MLL5; GST-tagged MLL5, sheet Array Heatmap, each array performed twice", "result": 0.5412}, {"measurement": "Array Heatmap signal (histone peptide microarray)", "setting": "AIRE (PP); GST-tagged AIRE (PP), sheet Array Heatmap, each array performed twice", "result": 0.3968}, {"measurement": "Array Heatmap signal (histone peptide microarray)", "setting": "KDM5A (3); GST-tagged KDM5A (3), sheet Array Heatmap, each array performed twice", "result": 0.5826}, {"measurement": "Array Heatmap signal (histone peptide microarray)", "setting": "BPTF (PB); GST-tagged BPTF (PB = PHD + Bromodomain), sheet Array Heatmap, each array performed twice", "result": 0.35}, {"measurement": "Array Heatmap signal (histone peptide microarray)", "setting": "RAG2; GST-tagged RAG2, sheet Array Heatmap, each array performed twice", "result": 0.2672}, {"measurement": "Array Heatmap signal (histone peptide microarray)", "setting": "CHD4 (PPCC); GST-tagged CHD4 (PPCC = Dual PHD + Dual Chromodomain), sheet Array Heatmap, each array performed twice", "result": 0.624}, {"measurement": "Array Heatmap signal (histone peptide microarray)", "setting": "KDM5B (3); GST-tagged KDM5B (3), sheet Array Heatmap, each array performed twice", "result": 0.5163}, {"measurement": "Array Heatmap signal (histone peptide microarray)", "setting": "ING2; GST-tagged ING2, sheet Array Heatmap, each array performed twice", "result": 0.6632}, {"measurement": "Array Heatmap signal (histone peptide microarray)", "setting": "PHF2; GST-tagged PHF2, sheet Array Heatmap, each array performed twice", "result": 0.5905}, {"measurement": "Array Heatmap signal (histone peptide microarray)", "setting": "ING3; GST-tagged ING3, sheet Array Heatmap, each array performed twice", "result": 0.4764}, {"measurement": "Array Heatmap signal (histone peptide microarray)", "setting": "PHF8; GST-tagged PHF8, sheet Array Heatmap, each array performed twice", "result": 0.3669}, {"measurement": "Array Heatmap signal (histone peptide microarray)", "setting": "PHRF1 (RP); GST-tagged PHRF1 (RP), sheet Array Heatmap, each array performed twice", "result": 0.4433}, {"measurement": "Array Heatmap signal (histone peptide microarray)", "setting": "TAF3; GST-tagged TAF3, sheet Array Heatmap, each array performed twice", "result": 0.2953}, {"measurement": "Array Heatmap signal (histone peptide microarray)", "setting": "DPF2 (PPC2W2); GST-tagged DPF2 (PPC2W2 = Dual PHD + C2W2-type Zn-finger), sheet Array Heatmap, each array performed twice", "result": 0.6866}]}, {"substance": "H3K4me3 + K9ac + S10p: H3 1-20", "values": [{"measurement": "Array Heatmap signal, DIDO1", "setting": "DIDO1; [1]", "result": 0.8464}, {"measurement": "Array Heatmap signal, SP140L", "setting": "SP140L; [1]", "result": 0.3742}, {"measurement": "Array Heatmap signal, ING5", "setting": "ING5; [1]", "result": 0.3414}, {"measurement": "Array Heatmap signal, KDM5A (1)", "setting": "KDM5A (1); [1]", "result": 0.422}, {"measurement": "Array Heatmap signal, CHD5 (PPCC)", "setting": "CHD5 (PPCC); [1]", "result": 0.5185}, {"measurement": "Array Heatmap signal, PHF23", "setting": "PHF23; [1]", "result": 0.5778}, {"measurement": "Array Heatmap signal, MORC3 (CW)", "setting": "MORC3 (CW); [1]", "result": 0.5046}, {"measurement": "Array Heatmap signal, KDM5B (1)", "setting": "KDM5B (1); [1]", "result": 0.5673}, {"measurement": "Array Heatmap signal, PHF21A", "setting": "PHF21A; [1]", "result": 0.4669}, {"measurement": "Array Heatmap signal, BAZ2B", "setting": "BAZ2B; [1]", "result": 0.4222}, {"measurement": "Array Heatmap signal, TRIM66 (PB)", "setting": "TRIM66 (PB); [1]", "result": 0.5913}, {"measurement": "Array Heatmap signal, PHF13", "setting": "PHF13; [1]", "result": 0.601}, {"measurement": "Array Heatmap signal, KDM4C (TTP)", "setting": "KDM4C (TTP); [1]", "result": 0.4439}, {"measurement": "Array Heatmap signal, ING1", "setting": "ING1; [1]", "result": 0.6226}, {"measurement": "Array Heatmap signal, CHD5 (PCC)", "setting": "CHD5 (PCC); [1]", "result": 0.7803}, {"measurement": "Array Heatmap signal, ING4", "setting": "ING4; [1]", "result": 0.4594}, {"measurement": "Array Heatmap signal, KDM7A", "setting": "KDM7A; [1]", "result": 0.3478}, {"measurement": "Array Heatmap signal, MLL5", "setting": "MLL5; [1]", "result": 0.6372}, {"measurement": "Array Heatmap signal, AIRE (PP)", "setting": "AIRE (PP); [1]", "result": 0.4053}, {"measurement": "Array Heatmap signal, KDM5A (3)", "setting": "KDM5A (3); [1]", "result": 0.592}, {"measurement": "Array Heatmap signal, BPTF (PB)", "setting": "BPTF (PB); [1]", "result": 0.3713}, {"measurement": "Array Heatmap signal, RAG2", "setting": "RAG2; [1]", "result": 0.3673}, {"measurement": "Array Heatmap signal, CHD4 (PPCC)", "setting": "CHD4 (PPCC); [1]", "result": 0.6064}, {"measurement": "Array Heatmap signal, KDM5B (3)", "setting": "KDM5B (3); [1]", "result": 0.4789}, {"measurement": "Array Heatmap signal, ING2", "setting": "ING2; [1]", "result": 0.7056}, {"measurement": "Array Heatmap signal, PHF2", "setting": "PHF2; [1]", "result": 0.6992}, {"measurement": "Array Heatmap signal, ING3", "setting": "ING3; [1]", "result": 0.5024}, {"measurement": "Array Heatmap signal, PHF8", "setting": "PHF8; [1]", "result": 0.4377}, {"measurement": "Array Heatmap signal, PHRF1 (RP)", "setting": "PHRF1 (RP); [1]", "result": 0.5333}, {"measurement": "Array Heatmap signal, TAF3", "setting": "TAF3; [1]", "result": 0.3627}, {"measurement": "Array Heatmap signal, DPF2 (PPC2W2)", "setting": "DPF2 (PPC2W2); [1]", "result": 0.6858}]}]}
